Measured values: US20250186541A1, “DLL3 TARGETING PEPTIDES AND CONSTRUCTS THEREOF” (MARIANA ONCOLOGY INC., priority 2023, published 2025)
Bridge positions count the residues as written; N and C are the ends. Square brackets hold non-standard residues; d marks the D form. Peptide text beside a SMILES is read from it.

These molecules were tested against T1, human DLL3 (Homo sapiens, UniProt Q9NYJ7) (assay: Affinity determination by Surface Plasmon Resonance (SPR), Biacore, 1:1 binding model). Conditions: biotinylated human DLL3 on streptavidin chip, 25° C.; NB = nonbinding.
T1 construct: biotin (biotinylated)
T1 sequence (Q9NYJ7 27-618): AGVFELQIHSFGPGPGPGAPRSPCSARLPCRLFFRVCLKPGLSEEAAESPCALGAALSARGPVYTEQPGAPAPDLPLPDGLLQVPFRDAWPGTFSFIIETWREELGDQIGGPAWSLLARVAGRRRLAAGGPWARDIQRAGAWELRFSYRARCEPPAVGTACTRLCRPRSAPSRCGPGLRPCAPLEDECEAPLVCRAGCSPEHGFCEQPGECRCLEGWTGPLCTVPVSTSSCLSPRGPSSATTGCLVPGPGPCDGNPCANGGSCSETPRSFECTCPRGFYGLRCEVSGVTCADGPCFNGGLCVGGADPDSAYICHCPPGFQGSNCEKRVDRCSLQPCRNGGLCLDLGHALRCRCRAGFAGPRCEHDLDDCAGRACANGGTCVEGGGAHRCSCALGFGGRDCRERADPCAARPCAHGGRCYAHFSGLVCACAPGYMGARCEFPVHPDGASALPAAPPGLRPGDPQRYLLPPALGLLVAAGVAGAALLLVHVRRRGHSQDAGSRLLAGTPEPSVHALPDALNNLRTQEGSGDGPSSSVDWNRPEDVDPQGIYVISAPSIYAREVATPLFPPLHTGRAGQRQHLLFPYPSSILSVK
Experimental: Example 3. Binding Affinity of Targeting Moieties Polypeptides to DLL3 Affinity Determination by Surface Plasmon Resonance (SPR)
SPR studies were performed on the compounds disclosed herein using the following protocol. […] Biotinylated target ligand human DLL3 was immobilized on a streptavidin sensor chip. A reference surface was set up for nonspecific binding and refractive index changes. For analysis of the kinetics of interactions, varying concentrations of samples were injected at a flow rate of 100 μL/min using running buffer containing 20 mM phosphate buffer with 2.7 mM KCl, 137 mM NaCl, 0.05% Surfactant P20 and 2% DMSO. Sensorgram curves were fitted with 1:1 binding model, and affinity and kinetic parameters were obtained using Biacore Insight evaluation 4.0. software.

Q: CSCC[C@H](NC(C)=O)C(=O)N[C@@H](CO)C(=O)N[C@@H](CC(=O)O)C(=O)N[C@H]1CSSC[C@@H](C(=O)N2CCC[C@H]2C(=O)N[C@@H](Cc2ccccc2)C(=O)N[C@@H](CC(=O)O)C(N)=O)NC(=O)[C@H](CC(N)=O)NC(=O)[C@H](Cc2c[nH]c3ccccc23)NC(=O)[C@@H](C)NC(=O)[C@H](CC(C)C)NC(=O)[C@H](Cc2c[nH]c3ccccc23)NC1=O [compound 13, Ac-M-S-D-C(3)-W-L-(D-Ala)-W-N-C(3)-P-F-D-CONH2] (Ac-MSDCWL[dA]WNCPFD-NH2; disulfide 4-10) was tested. Which Kd did it give?
A: The Kd was over 100 nM.

Q: How did the Kd turn out when CSCC[C@H](NC(C)=O)C(=O)N[C@@H](CO)C(=O)N[C@@H](CC(=O)O)C(=O)N[C@H]1CSSC[C@@H](C(=O)N2CCC[C@H]2C(=O)N[C@@H](Cc2ccccc2)C(=O)N[C@@H](CC(=O)O)C(N)=O)NC(=O)[C@@H](C)NC(=O)[C@H](Cc2c[nH]c3ccccc23)NC(=O)[C@H](CCC(N)=O)NC(=O)[C@H](CC(C)C)NC(=O)[C@H](Cc2c[nH]c3ccccc23)NC1=O [compound 15, Ac-M-S-D-C(3)-W-L-Q-W-(D-Ala)-C(3)-P-F-D-CONH2] (Ac-MSDCWLQW[dA]CPFD-NH2; disulfide 4-10) was run?
A: The Kd was over 100 nM.

Q: How did the Kd turn out when CSCC[C@H](NC(C)=O)C(=O)N[C@@H](CO)C(=O)N[C@@H](CC(=O)O)C(=O)N[C@H]1CSSC[C@@H](C(=O)N[C@H](C)C(=O)N[C@@H](Cc2ccccc2)C(=O)N[C@@H](CC(=O)O)C(N)=O)NC(=O)[C@H](CC(N)=O)NC(=O)[C@H](Cc2c[nH]c3ccccc23)NC(=O)[C@H](CCC(N)=O)NC(=O)[C@H](CC(C)C)NC(=O)[C@H](Cc2c[nH]c3ccccc23)NC1=O [compound 16, Ac-M-S-D-C(3)-W-L-Q-W-N-C(3)-(D-Ala)-F-D-CONH2] (Ac-MSDCWLQWNC[dA]FD-NH2; disulfide 4-10) was run?
A: The Kd was over 100 nM.

Q: How did the Kd turn out when CSCC[C@H](NC(C)=O)C(=O)N[C@@H](CO)C(=O)N[C@@H](CC(=O)O)C(=O)N[C@H]1CSSC[C@@H](C(=O)N2CCC[C@H]2C(=O)N[C@H](C)C(=O)N[C@@H](CC(=O)O)C(N)=O)NC(=O)[C@H](CC(N)=O)NC(=O)[C@H](Cc2c[nH]c3ccccc23)NC(=O)[C@H](CCC(N)=O)NC(=O)[C@H](CC(C)C)NC(=O)[C@H](Cc2c[nH]c3ccccc23)NC1=O [compound 17, Ac-M-S-D-C(3)-W-L-Q-W-N-C(3)-P-(D-Ala)-D-CONH2] (Ac-MSDCWLQWNCP[dA]D-NH2; disulfide 4-10) was run?
A: Its Kd is over 100 nM.

Q: Which Kd does the source give for CSCC[C@H](NC(C)=O)C(=O)N[C@@H](CO)C(=O)N[C@@H](CC(=O)O)C(=O)N[C@H]1CSSC[C@@H](C(=O)N2CCC[C@H]2C(=O)N[C@@H](Cc2ccccc2)C(=O)N[C@H](C)C(N)=O)NC(=O)[C@H](CC(N)=O)NC(=O)[C@H](Cc2c[nH]c3ccccc23)NC(=O)[C@H](CCC(N)=O)NC(=O)[C@H](CC(C)C)NC(=O)[C@H](Cc2c[nH]c3ccccc23)NC1=O [compound 18, Ac-M-S-D-C(3)-W-L-Q-W-N-C(3)-P-F-(D-Ala)-CONH2] (Ac-MSDCWLQWNCPF[dA]-NH2; disulfide 4-10) here?
A: Its Kd is over 100 nM.

Q: For CSCC[C@H](NC(C)=O)C(=O)N[C@@H](C)C(=O)N[C@@H](CC(=O)O)C(=O)N[C@H]1CSSC[C@@H](C(=O)N2CCC[C@H]2C(=O)N[C@@H](Cc2ccccc2)C(=O)N[C@@H](CC(=O)O)C(N)=O)NC(=O)[C@H](CC(N)=O)NC(=O)[C@H](Cc2c[nH]c3ccccc23)NC(=O)[C@H](CCC(N)=O)NC(=O)[C@H](CC(C)C)NC(=O)[C@H](Cc2c[nH]c3ccccc23)NC1=O [compound 20, Ac-M-(L-Ala)-D-C(3)-W-L-Q-W-N-C(3)-P-F-D-CONH2] (Ac-MADCWLQWNCPFD-NH2; disulfide 4-10), which Kd is on record?
A: Its Kd is over 100 nM.

Q: With CSCC[C@H](NC(C)=O)C(=O)N[C@@H](CO)C(=O)N[C@@H](CC(=O)O)C(=O)N[C@H]1CSSC[C@@H](C(=O)N2CCC[C@H]2C(=O)N[C@@H](Cc2ccccc2)C(=O)N[C@@H](CC(=O)O)C(N)=O)NC(=O)[C@H](CC(N)=O)NC(=O)[C@H](Cc2c[nH]c3ccccc23)NC(=O)[C@H](CCC(N)=O)NC(=O)[C@H](CC(C)C)NC(=O)[C@H](C)NC1=O [compound 22, Ac-M-S-D-C(3)-(L-Ala)-L-Q-W-N-C(3)-P-F-D-CONH2] (Ac-MSDCALQWNCPFD-NH2; disulfide 4-10) as the molecule, how does the Kd read?
A: The Kd was over 100 nM.
